These results are taken from ChEMBL document CHEMBL4308906, “Design and synthesis of selective CYP1B1 inhibitor via dearomatization of α-naphthoflavone” (Bioorg Med Chem, 2019).

SMILES strings stand for the structures.

Holding throughout (parameters): scale not given: the % may be the effect or the level left
The target of one data set is T1, CYP1A2 (Homo sapiens, UniProt P05177).
T1 sequence (P05177 whole entry): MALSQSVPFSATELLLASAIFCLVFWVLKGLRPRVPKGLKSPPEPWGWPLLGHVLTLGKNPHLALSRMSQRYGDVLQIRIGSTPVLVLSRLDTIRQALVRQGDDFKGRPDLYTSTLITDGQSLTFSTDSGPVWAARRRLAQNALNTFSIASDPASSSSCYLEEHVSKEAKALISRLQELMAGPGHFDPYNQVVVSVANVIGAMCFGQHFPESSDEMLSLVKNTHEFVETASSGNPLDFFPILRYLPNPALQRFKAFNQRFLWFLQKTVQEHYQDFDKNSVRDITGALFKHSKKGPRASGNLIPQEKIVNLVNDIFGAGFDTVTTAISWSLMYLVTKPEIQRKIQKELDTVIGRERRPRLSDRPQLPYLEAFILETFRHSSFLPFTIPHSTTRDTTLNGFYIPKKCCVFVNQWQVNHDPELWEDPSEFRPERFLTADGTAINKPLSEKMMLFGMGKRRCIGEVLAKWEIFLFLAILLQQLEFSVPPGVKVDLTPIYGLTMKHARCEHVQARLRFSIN
Briefly: Inhibition of human recombinant CYP1A2 using 7-ethoxyresorufin as substrate assessed as percent enzyme activity at 1 uM after 30 mins in presence of NADPH by EROD assay relative to control. The class given is ADME. Particulars: recombinant CYP1A2, probe 7-ethoxyresorufin, read-out: Activity.

The next data set has as its target T2, Cytochrome P450 1B1 (Homo sapiens, UniProt Q16678).
T2 sequence (Q16678 whole entry): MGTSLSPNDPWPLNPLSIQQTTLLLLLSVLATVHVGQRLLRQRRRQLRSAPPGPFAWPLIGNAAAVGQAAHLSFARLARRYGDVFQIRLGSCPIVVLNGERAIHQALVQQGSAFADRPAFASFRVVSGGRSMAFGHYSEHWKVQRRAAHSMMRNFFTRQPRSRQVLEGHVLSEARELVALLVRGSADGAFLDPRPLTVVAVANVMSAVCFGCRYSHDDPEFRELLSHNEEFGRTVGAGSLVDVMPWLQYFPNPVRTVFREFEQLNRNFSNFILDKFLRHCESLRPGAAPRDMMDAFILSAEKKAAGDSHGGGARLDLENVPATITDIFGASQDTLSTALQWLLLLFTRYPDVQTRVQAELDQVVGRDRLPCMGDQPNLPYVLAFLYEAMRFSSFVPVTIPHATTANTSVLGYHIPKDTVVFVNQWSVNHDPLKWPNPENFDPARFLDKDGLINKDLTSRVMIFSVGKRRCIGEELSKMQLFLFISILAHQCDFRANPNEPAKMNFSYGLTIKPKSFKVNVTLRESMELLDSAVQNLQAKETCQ
The data set can be described thus: Inhibition of human recombinant CYP1B1 using 7-ethoxyresorufin as substrate assessed as percent enzyme activity at 1 uM after 30 mins in presence of NADPH by EROD assay relative to control. Particulars: read-out: Activity.

The target in another data set is T3, CYP1A1 (Homo sapiens, UniProt P04798).
T3 sequence (P04798 whole entry): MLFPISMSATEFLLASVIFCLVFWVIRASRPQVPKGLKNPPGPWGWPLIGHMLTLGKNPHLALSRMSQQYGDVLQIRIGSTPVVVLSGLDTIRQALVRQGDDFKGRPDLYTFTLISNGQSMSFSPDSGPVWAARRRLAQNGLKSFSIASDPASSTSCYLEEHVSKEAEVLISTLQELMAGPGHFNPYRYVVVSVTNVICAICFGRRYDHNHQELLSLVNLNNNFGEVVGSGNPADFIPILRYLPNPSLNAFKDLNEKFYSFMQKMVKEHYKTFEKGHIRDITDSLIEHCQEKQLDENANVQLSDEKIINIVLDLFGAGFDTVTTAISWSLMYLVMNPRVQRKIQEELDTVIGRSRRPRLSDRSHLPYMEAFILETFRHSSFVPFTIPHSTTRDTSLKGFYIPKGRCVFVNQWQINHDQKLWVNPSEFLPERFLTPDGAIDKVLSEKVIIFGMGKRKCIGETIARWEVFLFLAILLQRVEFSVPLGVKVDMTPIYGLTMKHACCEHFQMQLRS
Briefly: Inhibition of human recombinant CYP1A1 using 7-ethoxyresorufin as substrate assessed as percent enzyme activity at 1 uM after 15 mins in presence of NADPH by EROD assay relative to control. The data set is classed as ADME. Particulars: recombinant CYP1A1, probe 7-ethoxyresorufin, read-out: Activity.

For the molecule `COc1ccc(-c2cc(=O)c3ccc4ccccc4c3o2)cc1`, the activity at 0.5 h, 1 µM on CYP1A2 was 15.9%; on Cytochrome P450 1B1, -0.5%. Moreover, at CYP1A1, the activity at 0.25 h, 1 µM came out at 4%.

As to `Nc1cccc(-c2cc(=O)c3ccc4ccccc4c3o2)c1`, the activity at 0.5 h, 1 µM at CYP1A2 was -3.5%; at Cytochrome P450 1B1 it was 0.2%. In addition, the activity at 0.25 h, 1 µM at CYP1A1 was found to be 7.6%.

In the case of `O=c1cc(-c2cccc(O)c2)oc2c1ccc1ccccc12`, the values for the activity at 0.5 h, 1 µM at CYP1A2 and on Cytochrome P450 1B1 were 37.2% and 1.6%, respectively. For the same molecule, the activity at 0.25 h, 1 µM on CYP1A1 is 8.2%.

As for `CS(=O)(=O)OCC1CCC(c2cc(=O)c3ccc4ccccc4c3o2)CC1` (racemic), the activity at 0.5 h, 1 µM at CYP1A2 came out at 96.4%; on Cytochrome P450 1B1 it was 50.1%. In addition, at CYP1A1, the activity at 0.25 h, 1 µM turned out to be 78.1%.

For `CS(=O)(=O)O[C@@H]1CCC[C@@H](c2cc(=O)c3ccc4ccccc4c3o2)C1` (relative stereo), the values for the activity at 0.5 h, 1 µM at CYP1A2 and on Cytochrome P450 1B1 were 69.1% and 59.9%, respectively. Besides, the activity at 0.25 h, 1 µM at CYP1A1 was 66.5%.

With `CN(C)C(=O)Sc1cccc(-c2cc(=O)c3ccc4ccccc4c3o2)c1`, the figures for the activity at 0.5 h, 1 µM on CYP1A2 and at Cytochrome P450 1B1 were 68.7% and 2.4%, respectively. Besides, on CYP1A1, the activity at 0.25 h, 1 µM came to 3.8%.

Turning to `Nc1ccc(-c2cc(=O)c3ccc4ccccc4c3o2)cc1`, the activity at 0.5 h, 1 µM at CYP1A2 is -16.3%; at Cytochrome P450 1B1, -1.2%. In addition, at CYP1A1, the activity at 0.25 h, 1 µM came to 2.1%.

As to `O=c1cc(-c2ccc(S)cc2)oc2c1ccc1ccccc12`, the activity at 0.5 h, 1 µM was determined as 106% at CYP1A2 and 54.3% at Cytochrome P450 1B1. Besides, the activity at 0.25 h, 1 µM on CYP1A1 was 71.3%.

In the case of `O=c1cc([C@H]2C[C@@H]3C=C[C@H]2C3)oc2c1ccc1ccccc12`, the activity at 0.5 h, 1 µM at CYP1A2 came to 34%; at Cytochrome P450 1B1, 83%. Further, the activity at 0.25 h, 1 µM on CYP1A1 was 61%.

On to `O=c1cc([C@@H]2CCC[C@H](O)C2)oc2c1ccc1ccccc12` (relative stereo), for which the activity at 0.5 h, 1 µM was 68.2% at CYP1A2 and 79.4% on Cytochrome P450 1B1. Besides, the activity at 0.25 h, 1 µM on CYP1A1 is 71.3%.

Regarding `CS(=O)(=O)O[C@H]1CC[C@H](c2cc(=O)c3ccc4ccccc4c3o2)CC1`, the activity at 0.5 h, 1 µM came to 80.3% on CYP1A2 and 72.5% on Cytochrome P450 1B1. In addition, the activity at 0.25 h, 1 µM on CYP1A1 is 69.9%.

`O=c1cc(C2CCC(CO)CC2)oc2c1ccc1ccccc12` (mixture of isomers): the values for the activity at 0.5 h, 1 µM at CYP1A2 and at Cytochrome P450 1B1 were 92.7% and 56.9%, respectively. Further, at CYP1A1, the activity at 0.25 h, 1 µM came to 85.9%.

`N[C@H]1CC[C@H](c2cc(=O)c3ccc4ccccc4c3o2)CC1`: the activity at 0.5 h, 1 µM on CYP1A2 came out at 95.4%; at Cytochrome P450 1B1, 89.5%. Besides, the activity at 0.25 h, 1 µM on CYP1A1 worked out at 84.2%.

As to `CS(=O)(=O)O[C@H]1CCC[C@@H](c2cc(=O)c3ccc4ccccc4c3o2)C1` (relative stereo), the activity at 0.5 h, 1 µM on CYP1A2 was 79.1%; on Cytochrome P450 1B1, 80.5%. Besides, the activity at 0.25 h, 1 µM at CYP1A1 was determined as 38.6%.

On to `CN(C)C(=S)Oc1ccc(-c2cc(=O)c3ccc4ccccc4c3o2)cc1`, for which the activity at 0.5 h, 1 µM is 96.9% at CYP1A2 and 15.1% on Cytochrome P450 1B1. The activity at 0.25 h, 1 µM on CYP1A1 stood at 17.6%.

`CS(=O)(=O)O[C@H]1CC[C@@H](c2cc(=O)c3ccc4ccccc4c3o2)CC1`: the activity at 0.5 h, 1 µM at CYP1A2 is 57.7%; on Cytochrome P450 1B1, 51.5%. Moreover, on CYP1A1, the activity at 0.25 h, 1 µM stood at 66.1%.

For `O=c1cc(C23CC4CC(CC(C4)C2)C3)oc2c1ccc1ccccc12`, the values for the activity at 0.5 h, 1 µM at CYP1A2 and on Cytochrome P450 1B1 were 77.8% and 89%, respectively. The activity at 0.25 h, 1 µM on CYP1A1 came to 53.9%.

As to `O=c1cc([C@@H]2CCC[C@@H](O)C2)oc2c1ccc1ccccc12` (relative stereo), the activity at 0.5 h, 1 µM came out at 73.9% at CYP1A2 and 72.9% at Cytochrome P450 1B1. For the same molecule, the activity at 0.25 h, 1 µM on CYP1A1 came to 78%.

Turning to `O=c1cc(-c2cccc(S)c2)oc2c1ccc1ccccc12`, the values for the activity at 0.5 h, 1 µM at CYP1A2 and on Cytochrome P450 1B1 were 56.2% and 9.8%, respectively. For the same molecule, the activity at 0.25 h, 1 µM at CYP1A1 stood at 18.7%.
